Test results from PMC11856857, “Protease-Resistant, Broad-Spectrum Antimicrobial Peptides with High Antibacterial and Antifungal Activity” (Life, 2025).
Converted amounts (≈) assume the structure as drawn. “Also recorded” adds a separate entry of the source. Read-outs that look alike come from different tables or passages of the source. Where a SMILES comes first, the peptide text is derived from it. Where no end group is shown, it is not given here.

Tests used:
P. aeruginosa ATCC 27853 = format: cell-based, Pseudomonas aeruginosa
E. coli ATCC 25922 = format: cell-based, Escherichia coli
human erythrocytes = format: cell-based; conditions: pH 7.2
Method: Permission to acquire the fresh human blood used for this experiment was granted by the […] University Local Ethics Committee (No. 2023-2/32, 27 January 2023). First, 30 μL of fresh male human blood was suspended with 10 mL of autoclaved Tris saline buffer (TBS buffer, 10 mM Tris, 150 mM NaCl, pH 7.2) and centrifuged thrice for 5 min at 1500 rpm. […] Three replicates were performed for each peptide dose. A sample of 20% Triton-X 100/DMSO was used as a positive control. After incubation, the 96-well plate was centrifuged at 1500 rpm for 10 min. Absorbance was measured at 414 nm using a microplate reader (Gen5 Synergy HT BioTek). The % lysis of the peptide was calculated as follows:% lysis = OD414 - OD414 (blank)/OD414 (total lysis - blank) × 100

C. albicans ATCC 10231 = format: cell-based, Candida albicans
S. aureus ATCC 29213 [1] = format: cell-based, Staphylococcus aureus
S. aureus ATCC 29213 [2] = experiment: Resistance development by serial passages; format: cell-based, Staphylococcus aureus; conditions: for MIC: Staphylococcus aureus
[3] = system: resistant Klebsiella pneumoniae (KP) strain; format: cell-based
3t3 cell line = format: cell-based, mouse; conditions: 24 h
Method: (§1) 3T3 and HaCaT cells were grown in DMEM consisting of 1% pen/strep and 10% FBS. A total of 5 × 10^4 cells were loaded into each well of a 96-well plate and incubated at 37 °C using a 5% CO2 incubator. All samples were measured in triplicate between 0.5–32 µg/mL concentrations and incubated at 37 °C for 24 h in a 5% CO2 incubator. Only cells and Mag-2 were used as negative and positive controls, respectively. After 24 h, cell cytotoxicity was evaluated using a cell proliferation kit (MTT, Roche, Basel, Switzerland) following the kit protocol and analyzed at 550 nm and 690 nm using a microplate reader (Gen5 Synergy HT BioTek). The concentration of peptides that killed 50% of the cells was determined as the IC50 in the cytotoxicity experiments.

proteinase K = biological target: T1, proteinase K (Parengyodontium album, UniProt P06873); experiment: Stability toward enzymatic degradation (protease resistance assay); format: in vitro ADME; conditions: peptide 1 mg/mL in TBS (50 mM Tris, 150 mM NaCl, pH 7.6) with 10% DMSO; proteinase K 1 mg/mL (30 U/mg); 37 °C, overnight (also 10 min, 30 min); HPLC at 214 nm
T1 construct: purchased Qiagen
T1 sequence (P06873 106-384): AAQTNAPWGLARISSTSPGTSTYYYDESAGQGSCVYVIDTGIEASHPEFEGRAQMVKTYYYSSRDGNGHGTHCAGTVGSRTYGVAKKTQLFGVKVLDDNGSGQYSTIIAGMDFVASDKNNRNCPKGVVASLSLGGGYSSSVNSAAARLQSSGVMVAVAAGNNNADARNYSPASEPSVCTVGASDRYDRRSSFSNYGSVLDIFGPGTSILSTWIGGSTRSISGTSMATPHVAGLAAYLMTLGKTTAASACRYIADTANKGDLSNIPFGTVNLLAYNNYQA
Method: Peptide solutions were prepared at a final concentration of 1 mg/mL in TBS buffer (50 mM Tris, 150 mM NaCl, pH 7.6) including 10% DMSO. The proteinase K solution was adjusted to 1 mg/mL (enzyme activity = 30 U/mg). The peptide solution was then incubated at 37 °C overnight in an orbital shaker. After incubation, the reaction was blocked by adding 1% TFA (100 µL) in water. Peptide solutions with/without the proteinase K enzyme were analyzed at 214 nm using HPLC with an analytic column (AdvanceBio Peptide Plus, 2.1 × 150 mm, 2.7 µm, LC column, Agilent Technologies, Santa Clara, CA, USA) following the linear gradient method (30 min in a range of 5–80% acetonitrile including 0.025% TFA). MIC experiments were repeated to measure biological activities after treating the peptides with proteinase K.

HaCaT cell line = format: cell-based, human; conditions: 24 h
Method: as §1

Compound | MIC P. aeruginosa (P. aeruginosa ATCC 27853) [µg/mL] | MIC E. coli (E. coli ATCC 25922) [µg/mL] | MIC C. albicans (C. albicans ATCC 10231) [µg/mL] | MIC S. aureus (S. aureus ATCC 29213 [1]) [µg/mL] | other results
CC(C)C[C@@H](NC(=O)[C@H](N)CCCNC(=N)N)C(=O)N[C@H](CC(C)C)C(=O)N[C@H](CCCNC(=N)N)C(=O)N[C@H](CC(C)C)C(=O)N[C@H](CC(C)C)C(=O)N[C@H](CC(C)C)C(=O)N[C@H](CC(C)C)C(=O)N[C@H](CCCNC(=N)N)C(=O)N[C@H](CC(C)C)C(=O)N[C@H](CC(C)C)C(=O)N[C@H](CCCNC(=N)N)C(N)=O [D-TN1] (HELM PEPTIDE1{[dR].[dL].[dL].[dR].[dL].[dL].[dL].[dL].[dR].[dL].[dL].[dR].[am]}$$$$V2.0) | 4 (≈ 2.59 µM) | 8 (≈ 5.17 µM) | 1 (≈ 0.646 µM) | 4 (≈ 2.59 µM) | HC50 (human erythrocytes): 77.63 µg/mL
CC(C)C[C@@H](NC(=O)[C@@H](CC(C)C)NC(=O)[C@@H](CC(C)C)NC(=O)[C@@H](CCCNC(=N)N)NC(=O)[C@@H](CC(C)C)NC(=O)[C@@H](CC(C)C)NC(=O)[C@@H](CCCNC(=N)N)NC(=O)[C@@H](CC(C)C)NC(=O)[C@@H](CC(C)C)NC(=O)[C@H](N)CCCNC(=N)N)C(N)=O [D-TN3] (HELM PEPTIDE1{[dR].[dL].[dL].[dR].[dL].[dL].[dR].[dL].[dL].[dL].[am]}$$$$V2.0) | 4 (≈ 3.13 µM) | 2 (≈ 1.57 µM) | 0.25 (≈ 0.196 µM) | 8 (≈ 6.26 µM) | HC50 (human erythrocytes): 32.63 µg/mL
CNC(C)C1CCC(N)C(OC2C(N)CC(N)C(OC3OCC(C)(O)C(NC)C3O)C2O)O1 (centres unmarked) [gentamicin] | – | – | – | – | MIC value in the sixth passage (S. aureus ATCC 29213 [2]; S. aureus ATCC 29213, continuous serial passaging): 8 µg/mL (≈ 16.8 µM); MIC (S. aureus ATCC 29213 [2]; ATCC29213, read-out: MIC value in the sixth passage): 8 µg/mL (≈ 16.8 µM); MIC (S. aureus ATCC 29213 [2]; ATCC29213, read-out: initial MIC value): 1 µg/mL (≈ 2.09 µM)
Polymyxin B [reference compound] | – | – | – | – | MIC KP1 ([3]; Table S2, strain KP1): 16 µg/mL; MIC KP2 ([3]; Table S2, strain KP2): 2 µg/mL; MIC KP8 ([3]; Table S2, strain KP8): 64 µg/mL; MIC KP9 ([3]; Table S2, strain KP9): 2 µg/mL; MIC KP13 ([3]; Table S2, strain KP13): 16 µg/mL; MIC KP22 ([3]; Table S2, strain KP22): 8 µg/mL; MIC KP28 ([3]; Table S2, strain KP28): 16 µg/mL; MIC KP29 ([3]; Table S2, strain KP29): 16 µg/mL; MIC KP35 ([3]; Table S2, strain KP35): 8 µg/mL; MIC KP40 ([3]; Table S2, strain KP40): 4 µg/mL; MIC KP41 ([3]; Table S2, strain KP41): 4 µg/mL; MIC KP42 ([3]; Table S2, strain KP42): 8 µg/mL; MIC KP46 ([3]; Table S2, strain KP46): 16 µg/mL; MIC KP52 ([3]; Table S2, strain KP52): 8 µg/mL
RAARAAARAAR-NH2 [TN6A5] | >1024 | 1024 | 128 | >1024 | –
RALRALARALR-NH2 [TN6A1] | 256 | 128 | 256 | 128 | –
RIIRIIIRIIR-NH2 [TN6I1] | 128 | 32 | 128 | 16 | –
RILRILIRLIR-NH2 [TN6I2] | 32 | 16 | 128 | 2 | –
RLLRLLLLRLLR-NH2 [TN1] | 32 | 2 | 0.5 | 4 | –
RLLRLLLRLLR [D/L-TN6, TN6 template, arginine in L-form, leucine in L- and D-forms] | – | – | – | – | MIC C. albicans (C. albicans ATCC 10231; CLSI M27-A3): 8 µg/mL
RLLRLLLRLLR-NH2 [TN6] | 8 | 2 | 0.5 | 2 | IC50 3t3 (3t3 cell line): 29.80 µg/mL; Stability toward proteinase K (HPLC) (proteinase K): fragmented into different-sized molecules; also recorded: disappeared; IC50 HaCaT (HaCaT cell line): 15.32 µg/mL
RLLRLLRLLL [TN3-carboxy] | 32 | 4 | 1 | 16 | –
RLLRLLRLLL-NH2 [TN3-amide] | 4 | 8 | 2 | 8 | –
RLLRLLRLLLL-NH2 [TN8] | 256 | 4 | 0.5 | 8 | –
RLLRLLRLLLRLLRLLR-NH2 [TN6(2)] | 64 | 16 | 32 | 16 | –
RRLLRLLLRLLR-NH2 [RTN6] | 8 | 2 | 4 | 1 | –
RVLRVLRVLL-NH2 [TN3V1] | 32 | 16 | 4 | 8 | –
RVVRVVRVVV-NH2 [TN3V9] | 256 | 64 | 128 | 16 | –
